One substance from US20130102535A1, “Method for Preventing Myocardial Ischemia” (Shanghai Bajiayi Pharmaceutical Science and Technology Co. …, priority 2009, published 2013) can be followed below.

Assay [1] relates to acute myocardial ischemia rats (coronary artery ligation). Briefly: Serum creatine kinase (CK) and lactic dehydrogenase (LDH) of acute myocardial ischemia rats. The assay is classed as in vivo, Sprague-Dawley male rats. Particulars: blood at 5 hours after coronary artery ligation, x ± SD; for LDH activity in blood serum: P < 0.01 vs model group; for CK activity in blood serum: P < 0.05 vs model group. The text has this: Sprague-Dawley male rats of clean grade weighting 200-220 g were supplied by the animal experimental center of the Second Military Medical University (license number: SCXK (Shanghai)-2007-0003). • 2.2.2 Experimental groups
Experimental rats were randomly divided into four groups: sham group: n=7, model group: n=8, MLIF low-dose group: n=8, MLIF high-dose group: n=9. The dose of medicine could be administrated according to rat body weight. MLIF low-dose group and MLIF high-dose group were administrated by tail intravenous injection prepared with normal saline as solvent at the dose of 0.15 mg/kg and 0.5 mg/kg, respectively. • 2.2.3 Coronary artery ligation and determination of CK and LDH in blood serum
Coronary artery ligations of rats were carried out as described previously. 3m1 blood sample of each animal was taken from femoral artery at 5 hours after coronary artery ligation and the blood serum was collected according to the method of convengtional centrifugalization. The creatine kinase (CK) and lactic dehydrogenase (LDH) activities in blood serum were measured by semi-automatic biochemical analyzer. • 2.2.4 Data and statistics analysis
(§1) All experimental data are given as x±SD. Differences between the groups were calculated by analysis of variance (SPSS 10.0).

The test system of assay [2] is rat myocardial ischemia models induced by coronary artery ligation. Briefly: Myocardial infarction area of rats after coronary artery ligation (N-BT staining). The assay is classed as in vivo, Sprague-Dawley male rats. The note with it: 5 hours after coronary artery ligation, x ± SD.
Text: Sprague-Dawley male rats of clean grade weighting 200-220 g were supplied by the animal experimental center of the Second Military Medical University (license number: SCXK (Shanghai)-2007-0003). • 2.1.2 Experimental groups
Experimental rats were randomly divided into four groups: sham group: n=8, model group: n=9, MLIF low-dose group: n=11, MLIF high-dose group: n=12. The dose of medicine could be administrated according to rat body weight. MLIF low-dose group and MLIF high-dose group were administrated by tail intravenous injection prepared with normal saline as solvent at the dose of 0.15 mg/kg and 0.5 mg/kg, respectively. • 2.1.3 Coronary artery ligation and measurement of myocardial infarction area of rats
The Sprague-Dawley male rats were abdomen anesthetized with 25% urethane (0.4 ml/100 g) and fixated at supine position. The chest was cut open among the fifth rib at left, and then the fourth and fifth ribs were cut off along the left side of sterna at 2 mm. The pericardium was snipped off with heart exposed, and a 0/3 suture line was passed through the left anterior descending coronary artery. The rats were administrated by tail intravenous injection slowly. After 10 minutes, the left anterior descending coronary artery was ligated rapidly and the heart was returned to its chest, removing the air within the thorax by hand, closing the thorax and tightening the purse-string suture rapidly. The entire process of opening and closing chest was performed within 30 seconds. The coronary arteries of rats of sham group were not ligated since the myocardial ischemia would be caused by coronary artery ligation.
The rats were administrated by tail intravenous injection with the dose of 0.15 mg/kg (MLIF low-dose group) and 0.5 mg/kg (MLIF high-dose group) at 15 minutes after coronary artery ligation with the same volume of normal saline administrated in sham group and model group. Each group of animals was executed at 5 hours after coronary artery ligation. The heart was taken out and the heart ventricle muscle was transversely chipped into 5 slices, the cut position of which was parallel to coronary sulcus under the coronary artery ligation line. The five slices of the heart ventricle muscle were stained with Nitroblue tetrazolium (N-BT) for 15 minutes with shaking. The normal heart ventricle muscle was dyed into dark blue while that of the area of myocardial infarction was unstained with normally light yellow. The area of myocardial infarction was isolated by a dissecting microscope and the whole heart weight, the left ventricle weight and the area of myocardial infarction weight were weighed, respectively, the percent (%) of area of myocardial infarction weight to whole heart weight were quantified as an measure on myocardial infarction area ranges. • 2.1.4 Data and statistics analysis
as §1

Where [3] appears, read: MLIF high-dose group 0.5 mg/kg tail i.v.
Where [4] appears, read: MLIF low-dose group 0.15 mg/kg tail i.v.
[5] abbreviates: MLIF high-dose group 0.5 mg/kg tail i.v., P < 0.01 vs model group.
Setting [6] is: MLIF low-dose group 0.15 mg/kg tail i.v., P < 0.05 vs model group.

Several values for one entry are separate records, joined by “and”; a condition that tells them apart may be missing. Identical values can stand only once.

On to Met-Gln-Cys-Asn-Ser (MQCNS) [MLIF], for which the “LDH activity in blood serum” value in assay [1] (setting [3]) was 3642±817 IU/L and 3642 ± 817^ΔΔ, ** IU/L; in assay [1] (setting [4]), 3156±864.1 IU/L and 3156 ± 864.1^ΔΔ, ** IU/L. Further, the “CK activity in blood serum” value is 5244±1787.8 IU/L and 5244 ± 1787.8^ΔΔ, * IU/L in assay [1] (setting [3]); 5258±2114.3 IU/L and 5258 ± 2114.3^ΔΔ, * IU/L in assay [1] (setting [4]). The “area of myocardial infarction weight” value in assay [2] (setting [3]) is reported as 158 ± 22.4^ΔΔ mg; in assay [2] (setting [4]) it was 187 ± 22.8^ΔΔ mg. Further, the “area of myocardial infarction/ left ventricle” value in assay [2] (setting [5]) is 30±3.7% and 30 ± 3.7^ΔΔ, ** %; in assay [2] (setting [6]), 33±3.2% and 33 ± 3.2^ΔΔ, * %. The “area of myocardial infarction/ whole heart” value was 20±2.7% and 20 ± 2.7^ΔΔ, ** % in assay [2] (setting [5]); 22±1.9% and 22 ± 1.9^ΔΔ, * % in assay [2] (setting [6]).
